Data from article PMC8066339, “Optimization of 2-Acylaminocycloalkylthiophene Derivatives for Activity against Staphylococcus aureus RnpA” (Antibiotics, 2021).

Experiments:
[1] = system: Human liver epithelial cells (HEP G2); test: MTT cytotoxicity testing; settings: for HEP G2 toxicity against 70% viability cut-off (in words): concentrations lower than 50 µM
Procedure: (§1) For the scaffold to have translational significance, it must be non-toxic to human cells. Accordingly, an initial assessment of toxicity was performed using human liver epithelial (HEP G2) cells via a 3-(4,5-dimethylthiazol-2-yl)-2,5-diphenyltetrazolium bromide (MTT) assay in the presence of up to 400 µM of each analog. […] Viability of 70% was used as the cut-off criteria for toxicity (Figure 4, dashed line), according to ISO guidelines, as described in Materials and Methods.
(§2) Human liver epithelial cells (HEP G2) were cultured in Dulbecco’s Modified Eagle Medium (DMEM; Fisher Scientific, Hampton, NH) supplemented with 10% heat inactivated fetal bovine serum (FBS; Corning Life Sciences) and 1% penicillin/streptomycin (Thermofisher Scientific). Cells were incubated at 37 °C with 5% CO2 in Nunc (Roskilde, Denmark) tissue culture flasks. Cells were grown in monolayers until exceeding 70% confluency, removed with 0.25% trypsin (Fisher Scientific), resuspended in fresh medium, and used to seed approximately 2.5 × 10^5 cells/mL into each well of a 96 well tissue culture microplate (Nunc) containing 200 µL of fresh medium. Cytotoxicity testing was conducted according to the guidelines of the International Organization for Standardization (ISO) 10993-5:2009. After 24 h of incubation, the cell media was removed, and adherent cells were washed with 1× phosphate buffered saline (PBS). Cell media was supplemented with 5% per volume of compound at final concentrations from 12.5 µM to 400 µM and incubated 20–24 h at 37 °C with 5% CO2. After incubation, medium supplemented with compound was removed from the wells and replaced with 100 µL of fresh culture medium. Then, 10 µL of 12 mM (3-(4,5-dimethylthiazol-2-yl)-2,5-diphenyltetrazolium bromide (MTT) stock reagent (CyQUANT MTT cell proliferation kit; Thermofisher Scientific) was added to each well. After labeling the cells with the MTT reagent, all but 25 µL of medium was removed from the wells, and 50 µL of DMSO was added to each well and mixed thoroughly and cells were incubated at 37 °C with 5% CO2 for 10 min. After incubation, wells were mixed again and using a SPECTRAmax5 microplate reader, absorbance was read at 540 nm. Cells were treated with 125 µg/mL mitomycin C (Fisher Scientific) to serve as a positive control and 2% DMSO as a negative control. […] All compounds were tested in two independent experiments in triplicate and cell viability was expressed as a percent of the negative control.

[2] = system: S. aureus clinical isolate USA300; test: Murine corneal infection (keratitis) model; type: in vivo, Staphylococcus aureus; settings: BALB/c mice, 50 µM topical 5 µL every 6 h for 48 h; not statistically different (t-test)
Procedure: Corneal infections were induced by inoculating corneal scratches with S. aureus, eyes were treated with RNP0012 6 h later and every 6 h thereafter for 48 h and bacterial burden was enumerated.
In vivo efficacy studies utilizing a murine model of corneal S. aureus infection were performed as previously described. Female BALB/c mice four to six weeks of age were acquired from Charles River ([…], MA, USA) and housed according to the approved University of Rochester Medical Center Council on Animal Research (UCAR) protocol. S. aureus clinical isolate USA300 was grown overnight on both MH agar and MH broth at 37 °C. Broth cultures were centrifuged at 2000× g for 10 min at 4 °C and the pellet was resuspended in 1× sterile PBS in a volume equivalent to the starting volume. The mice were anesthetized with 100 mg kg^−1 ketamine (Par Pharmaceutica; Chestnut Ridge, NY, USA) and 10 mg kg^−1 xylazine (Akorn, Inc.; Lake Forest, IL, USA) and 0.5% proparacaine (Akorn, Inc.) was applied to the right eye of each mouse. Excess proparacaine was blotted from the ocular surface. Using a 27-gauge needle, inoculated with a single colony of S. aureus USA300, three 2 mm scratches were made across the right cornea. […] The animals were euthanized after 48 h and whole eyes were excised, homogenized, and plated to quantitate viable S. aureus colonies present. […]

MTT cytotoxicity testing = settings: human, HEP G2 cells (human liver epithelial cells)
Procedure: as §1, §2

Compound | HEP G2 toxicity against 70% viability cut-off (in words) [1] | CFU reduction in comparison to vehicle treated animals [2] [log CFU] | viability at 50 µM (MTT cytotoxicity testing) [%] | Therapeutic index ([1]; human) | Fold of the 50 µM cytotoxicity dose above the MIC against S. aureus ([1]; human, 50 µM) [fold]
O=C(Nc1cccc(F)c1)c1c(NC(=O)C(F)(F)F)sc2c1CCCCC2 [RNP0008] | did not exhibit toxicity that was beyond the 70% cut-off criteria |  |  |  | 
O=C(Nc1ccc(F)cc1)c1c(NC(=O)C(F)(F)F)sc2c1CCCCC2 [RNP0009] | did not exhibit toxicity that was beyond the 70% cut-off criteria |  |  |  | 
Cc1cccc(NC(=O)c2c(NC(=O)C(F)(F)F)sc3c2CCCCC3)c1 [RNP0010] | did not exhibit toxicity that was beyond the 70% cut-off criteria |  |  |  | 
O=C(Nc1ccc(C(F)(F)F)cc1)c1c(NC(=O)C(F)(F)F)sc2c1CCCCC2 [RNP0012] |  | 1.2 | 68 | ~ 260 | 263
